One compound from patent publication US8318812B2, “Therapeutic agents for the treatment of lymphoid malignancies” (The Ohio State University Research Foundation, priority 2006, dated 2012) can be followed below.

The term IC50 denotes the point on the concentration scale where inhibition reaches its midpoint. Low readings indicate greater potency, high ones weaker potency.

One assay deals with Raji cells. Description: Raji disseminated lymphoma/leukemia SCID mouse xenograft model. The class given is in vivo, SCID mice. On the procedure:
In vivo therapeutic efficacy evaluation in a xenograft model: The in-vivo evaluation of FTY720 was carried out using the disseminated lymphoma bearing SCID mouse xenograft model. This model was generated using human Raji B cell line injected into SCID mice as previously described. Raji cells were cultured in RPMI1640+10% FBS. Confluent cultures with >95% viability were confirmed to express human CD19 by flow cytometry. […] female 6-8 week-old C.B.-17 SCID mice (Taconic Farm, Germantown, N.Y.) were injected with 2×10^6 cells intravenously (i.v) in 200 ul sterile PBS via the tail vein. Seventy two hours post inoculation, the animals were divided into 4 equal treatment groups. […] All the animals were monitored daily for signs of illness and sacrificed immediately if hind limb paralysis, respiratory distress or 30% body weight loss was noted. Body weight was measured once every week. […] The presences of the CD19^+ cells were evaluated in the bone marrow of these mice by flow cytometry. […]

Assay [1] concerns PARP, Caspase 3, caspase 8 and caspase 9. Description: Western blot of PARP and caspases 3, 8, 9 in CLL cells. The class given is cell-based, Human. On the procedure: Western blotting. Immunoblot assays were performed as described previously.(34) Cell lysates were prepared and quantified by the bicin choninic acid (BCA) method (Pierce, Rockford, Ill.). Lysates with 50 μg of total protein were separated using 10% sodium dodecyl sulfate-polyacrylamide-gel electrophoresis, and transferred to 0.2 μm nitrocellulose membranes (Schleicher & Schuell, Keene, N.H.). The blots were probed with indicated primary antibodies followed by Horseradish peroxidase (HRP)-conjugated goat anti-rabbit IgG or goat anti-mouse IgG (Bio-Rad Laboratories, Richmond, Calif.). Detection was made with chemiluminescent substrate (SuperSignal, Pierce Inc. Rockford, Ill.). The PARP (Ab-2) and Caspase 9 antibodies were purchased from Oncogene/Calbiochem/EMD Biosciences (San Diego, Calif.). The Caspase 3 (AR-14 caspase 3/cpp32 and caspase 8 (AR-18) antibodies were kind gift from Dr. John Reed (Burnham Institute, La Jolla, Calif.).
FTY720 induced apoptosis in CLL cells is not dependent on activation of caspases, the cysteine proteases of CED3/ICE family Several therapeutic agents such as glucocorticoids and chemotherapeutic agents such as fludarabine, chlorambucil and 2-chloro-2-deoxyadenosine induce cellular cytotoxicity in CLL cells through activation of caspases, the cysteine proteases of CED3/ICE family. […]
Background: In western blotting, separated proteins are transferred to a membrane and probed.

Assay [2] deals with acute myeloid leukemia (AML) cell lines. The assay is described as follows: MTS proliferation assay in AML cell lines. The class given is cell-based. The conditions noted are these: 48 hours. The procedure: Cell cultures were exposed for 48 hours to vehicle control and increasing concentrations of FTY720, and subsequently subjected to MTS assay per manufacturer's instructions. Mean concentrations (FIG. 9A) at which proliferation was inhibited by 50% (IC50) and representative dose curves (FIG. 9B) are shown. […] Using MTS assay, inhibition of cell proliferation for various derivatives was examined.
Background: Tetrazolium assays rely on reduction of a dye to a coloured formazan, in cell work by metabolically active cells.

In the next assay the test system is Mino cells. Description: Annexin V/PI toxicity in Mino cells. The class given is cell-based, Human. The conditions noted are these: Homo sapiens, WinNolin sigmoid inhibitory model. The procedure:
Primary MCL cells were isolated from PBMC (with informed patient consent under a protocol approved by IRB) as described before. All the MCL patients were identified as outlined by the World Health Organization (WHO) classification. Human mantle cell lymphoma patient cell lines (Mino and Jeko) were obtained from Dr. Raymond Lai. Primary cells or MCL cell lines were incubated in RPMI 1640 media, supplemented with 10%-20% heat-inactivated fetal bovine serum, 2 mM L-glutamine and penicillin (100 U/mL)/streptomycin ([…]) at 37° C. in an atmosphere of 5% CO2. FTY720 was synthesized as previously described. Toxicity was determined by flow cytometry using Annexin-V-FITC and Propidium Iodide (PI) staining. Apoptotic cells were identified as Annexin-V+ and/or PI+ cells. Cells excluding both FITC and PI were considered viable. Western Blotting was performed as described previously using indicated antibodies. The PARP (Ab-2) and Caspase 9 antibodies were purchased from Oncogene/Calbiochem/EMD Biosciences (San Diego, Calif.). Cyclin D1, Akt, Actin, Mcl-1, p-ERK, ERK and Bcl-2 were obtained from Santa Cruz biotech (Santa Cruz, Calif.).
Several therapeutic agents, including fludarabine, chlorambucil, 2-chloro-2-deoxyadenosine and glucocorticoids, induce toxicity in B cell malignancies through activating caspases, the cysteine proteases of CED3/ICE family. Inhibition of these caspases results in abrogation of apoptosis mediated by the toxic stimuli. To determine if caspase activation is involved in FTY720-induced cytotoxicity in MCL, we pretreated Mino cells with 150 μM broad spectrum caspase inhibitor z-VAD-fmk. […] Activation of caspases results in cleavage of key cellular proteins including poly-ADP-ribose polymerase (PARP).

On to `CCCCCCCCc1ccc(CCC(N)(CO)CO)cc1.Cl` [FTY720, 2-Amino-2-[2-(4-octylphenyl)ethyl]propane 1,3-diol hydrochloride], for which the median survival time in the assay on Raji cells (FTY720 5 mg/kg every day for 2 weeks i.p., 95% CI 39-53) came out at 47 days. Further, in the assay on Raji cells (after a follow-up period of 200 days), the “mice surviving without signs of disease” value was 4 of the 12. For the same compound, the PARP cleavage result in assay [1] (24 and 48 hours post treatment, CLL cells) is listed as “failed to reveal PARP cleavage”. For the same compound, the “caspases 3, 8 and 9 activation” value in assay [1] (FTY720 treated CLL cells) is recorded as “remained in precursor forms”. The “proliferation of AML cell lines (MTS)” value in assay [2] is reported as “inhibits proliferation”. This compound had an IC50 with Mino cells of 11.9 µM.
